Data on six molecules can be found in publication PMC12382740, “In Vitro and In Vivo Characterization of Novel Cathelicidin-Based Peptides with Antimicrobial Activity Against Pseudomonas aeruginosa” (Antibiotics, 2025).

≈ marks a conversion by molar mass, not a printed value. Like-named read-outs stand apart in the source and are kept apart here. Square brackets hold non-standard residues; d marks the D form. Ends that are not written are not given here. Peptide text beside a SMILES is read from it. * marks the point of attachment. Gu = N-terminal guanidylation, N=C(N)* Some results are limits rather than exact numbers.

Series [1] relates to HeLa cells. Also on record: method as in PMID 26114809. To be noted: read-out: IC50 against HeLa cells; cited from earlier work.
Series [2] concerns P. aeruginosa Strain 121007. Type of series: cell-based, Pseudomonas aeruginosa. To be noted: Strain 121007. As to the method:
(§1) The antimicrobial activity of the peptides was tested against a collection of P. aeruginosa, selected by their resistance or susceptibility to colistin and/or classified as MDR strains. The origin of the strains was either clinical, relevant to the current clinical situation, or commercial strains belonging to the American Type Culture Collection (ATCC, Manassas, VA, USA), which complemented the collection for comparison and control. For the initial activity screening of the 17 peptides, we tested them against P. aeruginosa ATCC strains 1211007 and 1211101. Both strains are multidrug-resistant; however, the key difference is that strain 1211007 is susceptible to colistin, whereas strain 1211101 is resistant to colistin.
(§2) Minimum Inhibitory Concentration (MIC) of the antimicrobial agents against bacterial strains was obtained through broth microdilution assays following a protocol based on the Clinical & Laboratory Standards Institute’s guidelines. Modifications regarding microplate material and broth were included when testing the peptides’ activity and are detailed below. Colistin MICs were obtained following recommendations of the joint CLSI-EUCAST Polymyxin Breakpoints Working Group using Cation Adjusted Mueller-Hinton Broth (90922, 500 g Sigma-Aldrich®, St. Louis, MO, USA), and strains Escherichia coli 13846 (mcr-1 positive) and P. aeruginosa ATCC 27853 were used as quality controls in all assays. Bacteria were cultured in Columbia Agar plates (Columbia Agar with 5% Sheep Blood 90 mm Stacker plates, Becton Dickinson, Franklin Lakes, NJ, USA) and incubated overnight at 37 °C. Polypropylene round-bottomed 96-well plates (-96-well Polypropylene Storage Microplates, 267334, Thermo Fischer Scientific, Waltham, MA, USA) were used to prevent peptide binding to plate walls. AST broth (BD Phoenix™ AST broth, 8 mL, 246003, Becton Dickinson, Franklin Lakes, NJ, USA) was used when testing the peptides’ activity. […] Three biological and technical replicates were performed per strain.

Series [3] deals with P. aeruginosa strain panel. Type of series: cell-based, Pseudomonas aeruginosa. To be noted: strain panel. As to the method:
as §1, §2

The next series has as its system human erythrocytes. Nature of the series: Hemolysis assay. Type of series: cell-based. To be noted: red cells of human, 4 h. As to the method: Commercially available human blood (IWB1K2E10ML, Innovative Research Inc., Novi, MI, USA) was used to produce a 50% haematocrit solution by mixing at 1:1 with PBS 1× (P5493, 1 L, Sigma, St. Louis, MO, USA). Three consecutive PBS 1× washes plus centrifugation at 2600 rpm for 10 min steps were performed. Finally, a 2% erythrocyte solution was prepared in PBS 1× and chilled on ice until used. Polypropylene plates were filled with 50 µL PBS 1× per well for the samples and 50 µL 2% Triton X-100 (TX-100, 9002-93-1, 100 mL, Sigma, St. Louis, MO, USA) for the hemolysis controls. A solution at 4× final concentration of the assay of each peptide was prepared in PBS and 50 µL were added to the first column of each plate, followed by serial dilutions in the microplate. Then, 50 µL of the 2% erythrocyte solution was added to each plate. […] controls consisted in a 1:1 mix of PBS 1× and erythrocytes at 2%. Plates were incubated at 37 °C for 4 h and then centrifuged at 1500 rpm for 5 min. Eighty µL were extracted from the supernatant of each well carefully and transferred to a polystyrene flat bottom plate for reading and read at 450 nm in an Epoch microplate spectrophotometer (Epoch™, BioTek, Winooski, VT, USA).
The therapeutic index is a widely accepted parameter to represent the specificity of antimicrobial peptides for prokaryotic versus eukaryotic cells. It is calculated by the ratio of HC50 (hemolytic activity) and MIC (antimicrobial activity); thus, larger values of therapeutic index indicate greater specificity for prokaryotic cells.

The test system of a further series is A549 cells. It is filed as cell-based, human. To be noted: 24 h. As to the method: (§3) Cell viability assays were performed against HeLa and A549 cells. Cells were seeded in Corning 96-well microplates at 2 × 10^3 cells/well and 5 × 10^3 cells/well and incubated for 24 h at 37 °C. Then, cells were treated with peptides dissolved in Dulbecco’s Modified Eagle’s Medium for 24 h; peptide concentration range 0.1–100 µM. The peptide solution was then removed, and fresh medium was added to the cells. Finally, 50 µL of activated-XTT solution was added and incubated for 4 h at 37 °C. A PowerWave X reader (BioTek, Winooski, VT, USA) was used to measure absorbance at 450 nm. Cell viability was calculated through the ratio of the absorbance of peptide-treated cells over the absorbance of untreated cells. Triplicates were run for each experiment.

Series [4] concerns HeLa cells. It is filed as cell-based, human. To be noted: 24 h. As to the method: as §3
Series [5] can be described thus: In vivo toxicity study, topical. To be noted: for mice final weight (median ± SD): after 7 days of observation after the treatment; for dermal responses and body weight loss / indicative signs of acute toxicity: healthy female BALB/C mice; for dermal responses and body weight loss: during the application; for indicative signs of acute toxicity: topical, efficacy dosage, 7 days observation. On the set-up: species or system BALB/C mice. As to the method: Immunocompetent female BALB/C mice weighing 20 g (7–9 weeks old) were used (Charles River laboratories, St-Germain-Nuelles, France). Animals were murine pathogen-free and were assessed for genetic authenticity. The study followed the Guide for the Care and Use of Laboratory Animals. The experiments followed the 2010/63/EU directive on the protection of animals used for scientific research. Experiments were approved by the Committee on the Ethics of Animal Experiments of the Virgen del Rocío University Hospital and the Andalusian Ministry of Agricultura, Pesca, Agua y Desarrollo Rural, Junta de Andalucía, Sevilla, Spain (11-09-15-322).
CAP-18 and D-CAP-18 peptides were evaluated in five healthy female BALB/C mice at the dosage and regimen schedule to be used in the efficacy studies. The following indicative signs of acute toxicity were assessed during seven days: reduced water (dehydration)/food intake, isolation, self-mutilation, tremors/spasms, dyspnea, physical activity (increased/reduced), chromo-dacryorrhea, dermal responses, including erythema/oedema/redness/discoloration/necrosis), muscle stiffness, piloerection, teeth grinding, and weight loss.

The subject of a further series is erythrocytes. Also on record: method as in PMID 26114809. To be noted: at 64 mg/L ref 58; cited from earlier work.
Series [6] relates to Colistin Susceptible P. aeruginosa. Type of series: cell-based, Pseudomonas aeruginosa. To be noted: Colistin Susceptible. As to the method:
as §1, §2

In series [7] the test system is Colistin-Resistant P. aeruginosa. It is filed as cell-based, Pseudomonas aeruginosa. To be noted: Colistin-Resistant. As to the method: as §1, §2
Series [8] relates to P. aeruginosa Strain ATCC 121110. Type of series: cell-based, Pseudomonas aeruginosa. To be noted: ATCC 121110. As to the method:
as §1, §2

In the case of H-inlkalaalakkil-NH2, the IC50 (in general, the concentration at which inhibition is half-maximal) in the series with HeLa cells [1] was 10 µM.
H-INLKALAALAKKIL-CH2CH2NH2: the IC50 in the series on HeLa cells [1] is 5 µM.
Consider `CC[C@@H](C)[C@@H](NC(=O)[C@@H](CCCCN)NC(=O)[C@@H](CCCCN)NC(=O)[C@@H](CC(C)C)NC(=O)[C@@H](CCCCN)NC(=O)[C@@H](CCC(=O)O)NC(=O)[C@@H](CCCCN)NC(=O)[C@H](NC(=O)[C@@H](CCCCN)NC(=O)[C@@H](CC(N)=O)NC(=O)[C@@H](CCCNC(=N)N)NC(=O)[C@@H](Cc1ccccc1)NC(=O)[C@@H](CCCCN)NC(=O)[C@@H](CCCNC(=N)N)NC(=O)[C@@H](CC(C)C)NC(=O)[C@@H](CCCNC(=N)N)NC(=O)[C@@H](CCCCN)NC(=O)[C@@H](CCCNC(=N)N)NC(=O)[C@@H](CC(C)C)NC(=O)CN)[C@H](C)CC)C(=O)NCC(=O)N[C@H](CCC(N)=O)C(=O)N[C@H](CCCCN)C(=O)N[C@@H](C(=O)N[C@H](CCC(N)=O)C(=O)NCC(=O)N[C@H](CC(C)C)C(=O)N[C@H](CC(C)C)C(=O)N1CCC[C@@H]1C(=O)N[C@H](CCCCN)C(=O)N[C@H](CC(C)C)C(=O)N[C@H](C)C(=O)N1CCC[C@@H]1C(=O)N[C@H](CCCNC(=N)N)C(=O)N[C@@H](C(=O)N[C@H](CC(=O)O)C(=O)N[C@H](Cc1ccc(O)cc1)C(=O)O)[C@H](C)O)[C@H](C)CC` [D-CAP-18, Glrkrlrkfrnkikeklkkigqkiqgllpklaprtdy] (H-G[dL][dR][dK][dR][dL][dR][dK][dF][dR][dN][dK][dI][dK][dE][dK][dL][dK][dK][dI]G[dQ][dK][dI][dQ]G[dL][dL][dP][dK][dL][dA][dP][dR][dT][dD][dY]-OH), for which the MIC (usually the least concentration at which growth counts as inhibited) in series [2] is 2 µg/mL (≈ 0.451 µM). Besides, in series [3], the MIC50 (in general, the lowest concentration that inhibits either 50% of growth or 50% of the strains tested, depending on the study) turned out to be 1 µg/mL (≈ 0.226 µM); the MIC90 (commonly an inhibitory concentration at the 90% level, which refers to growth in some studies and to a panel of isolates in others) was 2 µg/mL (≈ 0.451 µM). The molecule also returned an IC50 in the series with human erythrocytes of 62 µM. Also, 2.09 µM corresponded to half-maximal inhibition with A549 cells (IC50). In the series with HeLa cells [4], this molecule showed an IC50 of 2.11 µM. In addition, in [5], the “mice final weight (median ± SD)” value amounted to 18.9 ± 0.30 grams; the “dermal responses and body weight loss” value was “no dermal responses, including erythema/oedema, nor body weight loss were observed”; the “indicative signs of acute toxicity” value is “None of the 11 indicative signs of acute toxicity were observed”.
In the case of mastoparan, the hemolysis in the series with erythrocytes is 6.6%. Moreover, the IC50 in the series on HeLa cells [1] is 32 µM.
Take “GLRKRLRKFRNKIKEKLKKIGQKIQGLLPKLAPRTDY [CAP-18]”: the figures for the MIC in series [6], in series [7] and in series [8] were 8 µg/mL, 4 µg/mL and below 0.125 µg/mL, respectively. The MIC50 in series [3] amounted to 0.5 µg/mL. Besides, the MIC90 in [3] turned out to be 4 µg/mL. The half-maximal inhibitory concentration (IC50) with human erythrocytes was determined as 35.7 µM; in the series on A549 cells, 0.87 µM; with HeLa cells [4] it was 9.12 µM. The “mice final weight (median ± SD)” value in series [5] is listed as 19.1 ± 0.55 grams. The “dermal responses and body weight loss” value in [5] is on record as “no dermal responses, including erythema/oedema, nor body weight loss were observed”. The “indicative signs of acute toxicity” value in [5] is “None of the 11 indicative signs of acute toxicity were observed”.
Consider “Gu-INLKALAALAKKIL-NH2 (SMILES CC[C@H](C)[C@H](NC(=N)N)C(=O)N[C@@H](CC(N)=O)C(=O)N[C@@H](CC(C)C)C(=O)N[C@@H](CCCCN)C(=O)N[C@@H](C)C(=O)N[C@@H](CC(C)C)C(=O)N[C@@H](C)C(=O)N[C@@H](C)C(=O)N[C@@H](CC(C)C)C(=O)N[C@@H](C)C(=O)N[C@@H](CCCCN)C(=O)N[C@@H](CCCCN)C(=O)N[C@H](C(=O)N[C@@H](CC(C)C)C(N)=O)[C@@H](C)CC) [guanidylated mastoparan analog]”, for which, in the series on HeLa cells [1], the half-maximal inhibitory concentration (IC50) was 13 µM.
